Tests used:
[1] = system: TCC-SUP; assay: cells; assay type: functional, cell-based; conditions: Homo sapiens;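 further: growth inhibition of TCC-SUP cells, read out with a cell viability assay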
Description: SANGER: Inhibition of human TCCSUP cell growth in a cell viability assay.

[2] = system: CCF-STTG1; assay: cells; assay type: functional, cell-based; conditions: Homo sapiens;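 further: growth inhibition of human CCF-STTG1 cells, determined with a cell viability read-out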
Description: SANGER: Inhibition of human CCF-STTG1 cell growth in a cell viability assay.

[3] = system: PFSK-1; assay: cells; assay type: functional, cell-based; conditions: Homo sapiens;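 further: cell viability assay measuring how strongly compounds suppress growth of human PFSK-1 cells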
Description: SANGER: Inhibition of human PFSK-1 cell growth in a cell viability assay.

[4] = system: ST486; assay: SANGER: Inhibition of human ST486 cell growth in a cell viability assay.; assay type: functional, cell-based
[5] = system: OVCAR-8; assay: cells; assay type: functional, cell-based; conditions: Homo sapiens;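 further: growth inhibition of human OVCAR-8 cells, read out by a cell viability assay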
Description: SANGER: Inhibition of human OVCAR-8 cell growth in a cell viability assay.

[6] = system: GP5d; assay: cells; assay type: functional, cell-based; conditions: Homo sapiens;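 further: growth inhibition of human GP5d cells, read out with a cell viability assay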
Description: SANGER: Inhibition of human GP5d cell growth in a cell viability assay.

[7] = system: NCI-H1703; assay: cells; assay type: functional, cell-based; conditions: Homo sapiens;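 further: growth inhibition of NCI-H1703 cells, read out via a cell viability assay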
Description: SANGER: Inhibition of human NCI-H1703 cell growth in a cell viability assay.

[8] = system: NB1; assay: cells; assay type: functional, cell-based; conditions: Homo sapiens;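 further: reduction of NB1 cell proliferation, read out with a viability assay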
Description: SANGER: Inhibition of human NB1 cell growth in a cell viability assay.

[9] = system: CAL-51; assay: cells; assay type: functional, cell-based; conditions: Homo sapiens;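 further: human CAL-51 cell line, growth inhibition read out via a cell viability assay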
Description: SANGER: Inhibition of human CAL-51 cell growth in a cell viability assay.

[10] = system: COLO-679; assay: cells; assay type: functional, cell-based; conditions: Homo sapiens
Description: SANGER: Inhibition of human COLO-679 cell growth in a cell viability assay.

[11] = system: TUR; assay: cells; assay type: functional, cell-based; conditions: Homo sapiens;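 further: growth inhibition of human TUR cells, read out with a cell viability assay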
Description: SANGER: Inhibition of human TUR cell growth in a cell viability assay.

[12] = system: LoVo; assay: cells; assay type: functional, cell-based; conditions: Homo sapiens;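 further: growth inhibition of human LoVo cells, read out with a cell viability assay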
Description: SANGER: Inhibition of human LoVo cell growth in a cell viability assay.

[13] = system: KYSE-140; assay: cells; assay type: functional, cell-based; conditions: Homo sapiens;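 further: cell viability assay measuring growth inhibition in human KYSE-140 cells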
Description: SANGER: Inhibition of human KYSE-140 cell growth in a cell viability assay.

[14] = system: KOSC-2; assay: cells; assay type: functional, cell-based; conditions: Homo sapiens;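 further: growth inhibition of KOSC-2 cells, read out by a cell viability assay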
Description: SANGER: Inhibition of human KOSC-2 cell growth in a cell viability assay.

[15] = system: PANC-03-27; assay: cells; assay type: functional, cell-based; conditions: Homo sapiens
Description: SANGER: Inhibition of human PANC-03-27 cell growth in a cell viability assay.

[16] = system: CPC-N; assay: cells; assay type: functional, cell-based; conditions: Homo sapiens;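 further: growth inhibition of CPC-N cells, with a cell viability assay as the readout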
Description: SANGER: Inhibition of human CPC-N cell growth in a cell viability assay.

[17] = system: LB647-SCLC; assay: cells; assay type: functional, cell-based; conditions: Homo sapiens;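 further: cell growth inhibition, read out by a viability assay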
Description: SANGER: Inhibition of human LB647-SCLC cell growth in a cell viability assay.

[18] = system: HCC1599; assay: cells; assay type: functional, cell-based; conditions: Homo sapiens;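 further: growth inhibition of HCC1599 cells, read out in a cell viability assay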
Description: SANGER: Inhibition of human HCC1599 cell growth in a cell viability assay.

[19] = system: MKN-1; assay: cells; assay type: functional, cell-based; conditions: Homo sapiens;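 further: growth inhibition of human MKN1 cells, read out by a cell viability measurement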
Description: SANGER: Inhibition of human MKN1 cell growth in a cell viability assay.

[20] = system: CAL-33; assay: cells; assay type: functional, cell-based; conditions: Homo sapiens;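 further: growth inhibition of CAL-33 cells, read out with a cell viability assay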
Description: SANGER: Inhibition of human CAL-33 cell growth in a cell viability assay.

[21] = system: CAL-27; assay: cells; assay type: functional, cell-based; conditions: Homo sapiens;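 further: Viability-based readout, IC50 reflecting inhibition of CAL-27 cell growth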
Description: SANGER: Inhibition of human CAL-27 cell growth in a cell viability assay.

[22] = system: Capan-2; assay: cells; assay type: functional, cell-based; conditions: Homo sapiens;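 further: Capan-2 cell growth inhibition, read out with a viability assay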
Description: SANGER: Inhibition of human Capan-2 cell growth in a cell viability assay.

[23] = system: Huh-7; assay: cells; assay type: functional, cell-based; conditions: Homo sapiens;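 further: HuH-7 cell growth inhibition, read out with a cell viability assay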
Description: SANGER: Inhibition of human HuH-7 cell growth in a cell viability assay.

[24] = system: MFE-296; assay: SANGER: Inhibition of human MFE-296 cell growth in a cell viability assay.; assay type: functional, cell-based
[25] = system: COR-L279; assay: SANGER: Inhibition of human COR-L279 cell growth in a cell viability assay.; assay type: functional, cell-based
[26] = system: NCI-H716; assay: cells; assay type: functional, cell-based; conditions: Homo sapiens;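 further: growth inhibition of human NCI-H716 cells, measured by a cell viability assay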
Description: SANGER: Inhibition of human NCI-H716 cell growth in a cell viability assay.

[27] = system: COLO-741; assay: cells; assay type: functional, cell-based; conditions: Homo sapiens
Description: SANGER: Inhibition of human COLO-741 cell growth in a cell viability assay.

[28] = system: NCI-H1694; assay: cells; assay type: functional, cell-based; conditions: Homo sapiens;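 further: cell viability assay measuring inhibition of growth in human NCI-H1694 cells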
Description: SANGER: Inhibition of human NCI-H1694 cell growth in a cell viability assay.

[29] = system: BHY; assay: cells; assay type: functional, cell-based; conditions: Homo sapiens;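 further: cell growth inhibition read out by a viability assay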
Description: SANGER: Inhibition of human BHY cell growth in a cell viability assay.

[30] = system: NCI-H2087; assay: cells; assay type: functional, cell-based; conditions: Homo sapiens;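 further: growth inhibition determined with a cell viability readout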
Description: SANGER: Inhibition of human NCI-H2087 cell growth in a cell viability assay.

[31] = system: SW13; assay: cells; assay type: functional, cell-based; conditions: Homo sapiens;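 further: IC50 is inhibition of SW13 cell growth, read out with a cell viability assay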
Description: SANGER: Inhibition of human SW13 cell growth in a cell viability assay.

[32] = system: SK-N-AS; assay: cells; assay type: functional, cell-based; conditions: Homo sapiens;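 further: growth inhibition of human SK-N-AS cells, measured with a cell viability assay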
Description: SANGER: Inhibition of human SK-N-AS cell growth in a cell viability assay.

[33] = system: HCC1569; assay: cells; assay type: functional, cell-based; conditions: Homo sapiens;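 further: growth inhibition of human HCC1569 cells, read out with a cell viability assay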
Description: SANGER: Inhibition of human HCC1569 cell growth in a cell viability assay.

[34] = system: 769-P; assay: cells; assay type: functional, cell-based; conditions: Homo sapiens
Description: SANGER: Inhibition of human 769-P cell growth in a cell viability assay.

[35] = system: D-392MG; assay: cells; assay type: functional, cell-based; conditions: Homo sapiens
[36] = system: A-427; assay: cells; assay type: functional, cell-based; conditions: Homo sapiens;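 further: growth inhibition of human A-427 cells, read out by a cell viability assay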
Description: SANGER: Inhibition of human A427 cell growth in a cell viability assay.

[37] = system: NCI-H889; assay: cells; assay type: functional, cell-based; conditions: Homo sapiens;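 further: cell growth inhibition of the cell line, read out with a viability assay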
Description: SANGER: Inhibition of human NCI-H889 cell growth in a cell viability assay.

[38] = system: MDA-MB-134-VI; assay: cells; assay type: functional, cell-based; conditions: Homo sapiens
Description: SANGER: Inhibition of human MDA-MB-134-VI cell growth in a cell viability assay.

[39] = system: CAKI-1; assay: cells; assay type: functional, cell-based; conditions: Homo sapiens;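 further: growth inhibition of CAKI-1 cells, measured by a cell viability assay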
Description: SANGER: Inhibition of human CAKI-1 cell growth in a cell viability assay.

[40] = system: HuCCT-1; assay: cells; assay type: functional, cell-based, HuCCT1; conditions: Homo sapiens;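 further: growth inhibition of HuCCT-1 cells, read out by a cell viability assay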
Description: SANGER: Inhibition of human HuCCT1 cell growth in a cell viability assay.

[41] = system: CAL-120; assay: cells; assay type: functional, cell-based; conditions: Homo sapiens;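 further: cell growth inhibition, read out as cell viability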
Description: SANGER: Inhibition of human CAL-120 cell growth in a cell viability assay.

[42] = system: GDM-1; assay: cells; assay type: functional, cell-based; conditions: Homo sapiens;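 further: cell viability readout used to measure growth inhibition of human GDM-1 cells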
Description: SANGER: Inhibition of human GDM-1 cell growth in a cell viability assay.

[43] = system: NCI-H2347; assay: cells; assay type: functional, cell-based; conditions: Homo sapiens;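 further: growth inhibition of the cell line, read out with a cell viability assay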
Description: SANGER: Inhibition of human NCI-H2347 cell growth in a cell viability assay.

[44] = system: SNU-449; assay: cells; assay type: functional, cell-based; conditions: Homo sapiens
Description: SANGER: Inhibition of human SNU-449 cell growth in a cell viability assay.

[45] = system: D-542MG; assay: cells; assay type: functional, cell-based; conditions: Homo sapiens
Description: SANGER: Inhibition of human D-542MG cell growth in a cell viability assay.

[46] = system: Calu-1; assay: SANGER: Inhibition of human Calu-1 cell growth in a cell viability assay.; assay type: functional, cell-based
[47] = system: OE33; assay: cells; assay type: functional, cell-based; conditions: Homo sapiens;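 further: growth inhibition of human OE33 cells, measured by a cell viability assay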
Description: SANGER: Inhibition of human OE33 cell growth in a cell viability assay.

[48] = system: DMS-53; assay: cells; assay type: functional, cell-based; conditions: Homo sapiens;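 further: cell viability assay measuring growth inhibition of human DMS-53 cells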
Description: SANGER: Inhibition of human DMS-53 cell growth in a cell viability assay.

[49] = system: WSU-NHL; assay: cells; assay type: functional, cell-based; conditions: Homo sapiens;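 further: growth inhibition of human WSU-NHL cells, read out with a cell viability assay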
Description: SANGER: Inhibition of human WSU-NHL cell growth in a cell viability assay.

[50] = system: CAL-85-1; assay: cells; assay type: functional, cell-based; conditions: Homo sapiens;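 further: growth inhibition of human CAL-85-1 cells, read out with a cell viability assay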
Description: SANGER: Inhibition of human CAL-85-1 cell growth in a cell viability assay.

[51] = system: SW1088; assay: cells; assay type: functional, cell-based; conditions: Homo sapiens;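 further: growth inhibition of human SW1088 cells, read out by a cell viability assay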
Description: SANGER: Inhibition of human SW1088 cell growth in a cell viability assay.

[52] = system: SN12C; assay: cells; assay type: functional, cell-based; conditions: Homo sapiens;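 further: growth inhibition of human SN12C cells, measured by a cell viability assay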
Description: SANGER: Inhibition of human SN12C cell growth in a cell viability assay.

[53] = system: COLO-680N; assay: cells; assay type: functional, cell-based; conditions: Homo sapiens;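 further: cell viability assay used to measure inhibition of COLO-680N cell growth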
Description: SANGER: Inhibition of human COLO-680N cell growth in a cell viability assay.

[54] = system: SJRH30; assay: cells; assay type: functional, cell-based; conditions: Homo sapiens;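 further: growth inhibition of human SJRH30 cells, read out with a cell viability assay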
Description: SANGER: Inhibition of human SJRH30 cell growth in a cell viability assay.

[55] = system: RPMI-6666; assay: cells; assay type: functional, cell-based; conditions: Homo sapiens
Description: SANGER: Inhibition of human RPMI-6666 cell growth in a cell viability assay.

[56] = system: NCI-H2452; assay: cells; assay type: functional, cell-based; conditions: Homo sapiens;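 further: growth inhibition of NCI-H2452 cells, read out with a cell viability assay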
Description: SANGER: Inhibition of human NCI-H2452 cell growth in a cell viability assay.

[57] = system: NCI-H1693; assay: cells; assay type: functional, cell-based; conditions: Homo sapiens;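 further: growth inhibition of the human cell line, read out with a cell viability assay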
Description: SANGER: Inhibition of human NCI-H1693 cell growth in a cell viability assay.

[58] = system: KARPAS-422; assay: cells; assay type: functional, cell-based; conditions: Homo sapiens
Description: SANGER: Inhibition of human KARPAS-422 cell growth in a cell viability assay.

[59] = system: UACC-812; assay: cells; assay type: functional, cell-based; conditions: Homo sapiens
Description: SANGER: Inhibition of human UACC-812 cell growth in a cell viability assay.

[60] = system: G-402; assay: cells; assay type: functional, cell-based; conditions: Homo sapiens
Description: SANGER: Inhibition of human G-402 cell growth in a cell viability assay.

[61] = system: UMUC3; assay: cells; assay type: functional, cell-based; conditions: Homo sapiens;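 further: growth inhibition of human UM-UC-3 cells, read out with a cell viability assay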
Description: SANGER: Inhibition of human UM-UC-3 cell growth in a cell viability assay.

Compound: CO[C@@]12[C@H](COC(N)=O)C3=C(C(=O)C(C)=C(N)C3=O)N1C[C@@H]1N[C@@H]12 [MITOMYCIN]
- IC50 [1]: 482 nM
- IC50 [2]: 216 nM
- IC50 [3]: 5880 nM
- IC50 [4]: 494 nM
- IC50 [5]: 176 nM
- IC50 [6]: 84 nM
- IC50 [7]: 277 nM
- IC50 [8]: 187 nM
- IC50 [9]: 30.9 nM
- IC50 [10]: 90.2 nM
- IC50 [11]: 190 nM
- IC50 [12]: 431 nM
- IC50 [13]: 381 nM
- IC50 [14]: 1530 nM
- IC50 [15]: 167 nM
- IC50 [16]: 381 nM
- IC50 [17]: 336 nM
- IC50 [18]: 120 nM
- IC50 [19]: 541 nM
- IC50 [20]: 537 nM
- IC50 [21]: 41.2 nM
- IC50 [22]: 2790 nM
- IC50 [23]: 3220 nM
- IC50 [24]: 286 nM
- IC50 [25]: < 62.5 nM
- IC50 [26]: 2820 nM
- IC50 [27]: 2200 nM
- IC50 [28]: 415 nM
- IC50 [29]: 75.3 nM
- IC50 [30]: 85.7 nM
- IC50 [31]: 642 nM
- IC50 [32]: 1790 nM
- IC50 [33]: 645 nM
- IC50 [34]: < 62.5 nM
- IC50 [35]: 6680 nM
- IC50 [36]: 301 nM
- IC50 [37]: 2480 nM
- IC50 [38]: 2160 nM
- IC50 [39]: 23.3 nM
- IC50 [40]: 904 nM
- IC50 [41]: 5960 nM
- IC50 [42]: 377 nM
- IC50 [43]: 850 nM
- IC50 [44]: 3360 nM
- IC50 [45]: 602 nM
- IC50 [46]: 4810 nM
- IC50 [47]: 338 nM
- IC50 [48]: 809 nM
- IC50 [49]: 192 nM
- IC50 [50]: 65.9 nM
- IC50 [51]: 4670 nM
- IC50 [52]: 3460 nM
- IC50 [53]: 244 nM
- IC50 [54]: 1670 nM
- IC50 [55]: 220 nM
- IC50 [56]: 8940 nM
- IC50 [57]: 900 nM
- IC50 [58]: 907 nM
- IC50 [59]: > 16000 nM
- IC50 [60]: 85.9 nM
- IC50 [61]: 102 nM

Compound: N#C/C(=C1/Nc2ccccc2S1)c1ccnc(NCCc2cccnc2)n1
- IC50 [1]: > 8000 nM
- IC50 [2]: 6410 nM
- IC50 [3]: > 8000 nM
- IC50 [4]: 1740 nM
- IC50 [5]: > 8000 nM
- IC50 [6]: 7520 nM
- IC50 [7]: > 8000 nM
- IC50 [8]: > 8000 nM
- IC50 [9]: 5300 nM
- IC50 [10]: > 8000 nM
- IC50 [11]: > 8000 nM
- IC50 [12]: 2700 nM
- IC50 [13]: 1410 nM
- IC50 [14]: > 8000 nM
- IC50 [15]: 2900 nM
- IC50 [16]: > 8000 nM
- IC50 [17]: > 8000 nM
- IC50 [18]: > 8000 nM
- IC50 [19]: 2900 nM
- IC50 [20]: > 8000 nM
- IC50 [21]: > 8000 nM
- IC50 [22]: 6670 nM
- IC50 [23]: > 8000 nM
- IC50 [24]: 1550 nM
- IC50 [25]: > 8000 nM
- IC50 [26]: > 8000 nM
- IC50 [27]: > 8000 nM
- IC50 [28]: > 8000 nM
- IC50 [29]: > 8000 nM
- IC50 [30]: > 8000 nM
- IC50 [31]: > 8000 nM
- IC50 [32]: > 8000 nM
- IC50 [33]: 1960 nM
- IC50 [34]: > 8000 nM
- IC50 [35]: > 8000 nM
- IC50 [36]: > 8000 nM
- IC50 [37]: > 8000 nM
- IC50 [38]: > 8000 nM
- IC50 [39]: 6480 nM
- IC50 [40]: 7650 nM
- IC50 [41]: > 8000 nM
- IC50 [42]: > 8000 nM
- IC50 [43]: > 8000 nM
- IC50 [44]: 4870 nM
- IC50 [45]: > 8000 nM
- IC50 [46]: > 8000 nM
- IC50 [47]: > 8000 nM
- IC50 [48]: > 8000 nM
- IC50 [49]: > 8000 nM
- IC50 [50]: 1500 nM
- IC50 [51]: > 8000 nM
- IC50 [52]: > 8000 nM
- IC50 [53]: > 8000 nM
- IC50 [54]: > 8000 nM
- IC50 [55]: > 8000 nM
- IC50 [56]: > 8000 nM
- IC50 [57]: > 8000 nM
- IC50 [58]: > 8000 nM
- IC50 [59]: > 8000 nM
- IC50 [60]: > 8000 nM
- IC50 [61]: > 8000 nM
